The target in test [1] is T1, human neurokinin-3 receptors expressed in CHO cell lines (Homo sapiens, UniProt P29371).
T1 sequence (P29371 1-465): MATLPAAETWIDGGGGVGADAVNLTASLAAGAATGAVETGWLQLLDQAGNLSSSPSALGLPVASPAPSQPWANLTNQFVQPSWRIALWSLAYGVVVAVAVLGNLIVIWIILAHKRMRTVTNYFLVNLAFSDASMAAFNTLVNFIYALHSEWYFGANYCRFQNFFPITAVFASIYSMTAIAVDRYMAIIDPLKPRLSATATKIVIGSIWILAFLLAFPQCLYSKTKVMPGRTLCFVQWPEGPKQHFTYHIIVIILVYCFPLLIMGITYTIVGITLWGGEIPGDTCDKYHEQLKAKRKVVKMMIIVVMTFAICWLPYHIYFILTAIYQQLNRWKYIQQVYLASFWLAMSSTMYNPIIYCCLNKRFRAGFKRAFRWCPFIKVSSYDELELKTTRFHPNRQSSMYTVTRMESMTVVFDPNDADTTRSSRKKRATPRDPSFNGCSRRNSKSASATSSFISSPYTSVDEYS
Put plainly: biochemical. As to conditions: human NK-3 receptors in CHO cell lines; radioligand [125I]-[Me-Phe7]-NKB; mean of 2-5 separate experiments in duplicate or triplicate; read-out: Binding affinity in hNK-3-CHO IC50.
Description: The activity of the compounds of the present invention, as NK3 ligands, is determined by their ability to inhibit the binding of the radiolabelled NK3 ligands, [^125 I]-[Me--Phe^7 ]-NKB or [^3 H]-Senktide, to guinea-pig and human NK3 receptors (Renzetti et at, 1991, Neuropeptide, 18, 104-114; Buell et al, 1992, FEBS, 299(1), 90-95; Chung et al, 1994, Biochem. Biophys. Res. Commun., 198(3), 967-972).
The binding assays utilized allow the determination of the concentration of the individual compound required to reduce by 50% the [^125 I]-[Me--Phe^7 ]-NKB and [^3 H]-Senktide specific binding to NK3 receptor in equilibrium conditions (IC50).
The NK3 -antagonist activity of the compounds of the present invention is determined by their ability to inhibit senktide-induced contraction of the guinea-pig ileum (Maggi et al, 1990, Br. J. Pharmacol., 101, 996-1000) and rabbit isolated iris sphincter muscle (Hall et al., 1991, Eur. J. Pharmacol., 199, 9-14) and human NK3 receptors-mediated Ca^++ mobilization (Mochizuki et al, 1994, J. Biol. Chem., 269, 9651-9658). Guinea-pig and rabbit in-vitro functional assays provide for each compound tested a mean KB value of 3-8 separate experiments, where KB is the concentration of the individual compound required to produce a 2-fold rightward shift in the concentration-response curve of senktide. Human receptor functional assay allows the determination of the concentration of the individual compound required to reduce by 50% (IC50 values) the Ca^++ mobilization induced by the agonist NKB.

The target in test [2] is T2, NK-3 receptor relative to the NK-2 receptor (Homo sapiens, UniProt P29371).
T2 construct: counter-target NK-2 receptor (TACR2, human P21452); assay not given
T2 sequence (P29371 1-465): T1 sequence (P29371 1-465)
Put plainly: Selectivity for the NK-3 receptor relative to the NK-2 receptor. The settings on record: in words. It counts as binding.

The test system of a further test is NK-2 and NK-3 receptors. Put plainly: Combined NK-2/NK-3 antagonism. The settings on record: in words.

Where a name gives a salt, the structure may show the parent alone.

Regarding `CC[C@H](NC(=O)c1c(OCCNC(=O)Cc2ccccc2O)c(-c2ccccc2)nc2ccccc12)c1ccccc1` [Example 42], in test [1], the IC50 is 0.4 nM.
On the same count and under the same terms, with `CC[C@H](NC(=O)c1c(OCCNC(=O)Cc2ccccc2C(=O)O)c(-c2ccccc2)nc2ccccc12)c1ccccc1` [Example 29, (S)-N-(a-ethylbenzyl)-3-[2-(2'-carboxyphenylacetyl)aminoethoxy]-2-phenylquinoline-4-carboxamide] the figure was 0.8 nM.
Regarding `CC[C@H](NC(=O)c1c(OCCCC(=O)O)c(-c2ccccc2)nc2ccccc12)c1ccccc1` [Example 11, (S)-N-(a-ethylbenzyl)-3-(carboxypropoxy)-2-phenylquinoline-4-carboxamide], the IC50 in test [1] stood at 1.7 nM.
For the compound `CC[C@H](NC(=O)c1c(OCCNC(=O)c2ccccc2CC(=O)O)c(-c2ccccc2)nc2ccccc12)c1ccccc1` [Example 30, (S)-N-(a-ethylbenzyl)-3-[2-(2'-carboxymethylbenzoyl)aminoethoxy]-2-phenylquinoline-4-carboxamide], the IC50 in test [1] came out at 1.5 nM.
As for `CC[C@H](NC(=O)c1c(OCCCNC(=O)c2cnccn2)c(-c2ccccc2)nc2ccccc12)c1ccccc1` [Example 38], the 50% inhibitory concentration (IC50) in test [1] was 0.4 nM. Moreover, the “selectivity for the NK-3 receptor relative to the NK-2 receptor” value in test [2] is recorded as “particularly selective for the NK-3 receptor relative to the NK-2 receptor”.
For the compound `CC[C@H](NC(=O)c1c(OCCNC(=O)CN)c(-c2ccccc2)nc2ccccc12)c1ccccc1` [Example 25, (S)-N-(a-ethylbenzyl)-3-(2-aminoacetylaminoethoxy)-2-phenylquinoline-4-carboxamide], in test [1], the half-maximal inhibitory concentration (IC50) was found to be 2.6 nM.
Take `CC[C@H](NC(=O)c1c(OCCNC2Cc3ccccc3C2)c(-c2ccccc2)nc2ccccc12)c1ccccc1` [Example 8, (S)-N-(α-ethylbenzyl)-3-[2-(2-indanylamino)ethoxy]-2-phenylquinoline-4-carboxamide hydrochloride]: the IC50 in test [1] was determined as 1.3 nM.
For `CC[C@H](NC(=O)c1c(OCCNC(=O)Cc2ccccc2CN2CCCC2)c(-c2ccccc2)nc2ccccc12)c1ccccc1` [Example 40], the half-maximal inhibitory concentration (IC50) in test [1] stood at 1.3 nM. In addition, in the test with NK-2 and NK-3 receptors, the “combined NK-2/NK-3 antagonism” value is recorded as “particularly suitable as combined NK-2/NK-3 antagonists”.
For `CC[C@H](NC(=O)c1c(OCCNC(=O)c2ccccc2)c(-c2ccccc2)nc2ccccc12)c1ccccc1` [Example 9, (S)-N-(α-ethylbenzyl)-3-(2-benzoylaminoethoxy)-2-phenylquinoline-4-carboxamide], the IC50 in test [1] was found to be 2.2 nM.
`CC[C@H](NC(=O)c1c(OCCNC(=O)c2cnccn2)c(-c2ccccc2)nc2ccccc12)c1ccccc1` [Example 36]: the concentration for half-maximal inhibition (IC50) in test [1] came out at 0.2 nM. Further, the “selectivity for the NK-3 receptor relative to the NK-2 receptor” value in test [2] is on record as “particularly selective for the NK-3 receptor relative to the NK-2 receptor”.
Turning to `CC[C@H](NC(=O)c1c(OCCNC(=O)Cc2ccccc2CNC)c(-c2ccccc2)nc2ccccc12)c1ccccc1` [Example 39], the “combined NK-2/NK-3 antagonism” value with NK-2 and NK-3 receptors was “particularly suitable as combined NK-2/NK-3 antagonists”.
For the compound `CC[C@H](NC(=O)c1c(OCc2ccncc2)c(-c2ccccc2)nc2ccccc12)c1ccccc1` [Example 34], the concentration for half-maximal inhibition (IC50) in test [1] amounted to 1.6 nM. Also, the “selectivity for the NK-3 receptor relative to the NK-2 receptor” value in test [2] is listed as “particularly selective for the NK-3 receptor relative to the NK-2 receptor”.
For `CC[C@H](NC(=O)c1c(OCCNC(=O)Cc2ccncc2)c(-c2ccccc2)nc2ccccc12)c1ccccc1` [Example 26, (S)-N-(a-ethylbenzyl)-3-[2-(4-pyridylacetyl)aminoethoxy]-2-phenylquinoline-4-carboxamide], the concentration for half-maximal inhibition (IC50) in test [1] worked out at 0.9 nM.
In the case of `CC[C@H](NC(=O)c1c(OCCNC(=O)CCC(=O)O)c(-c2ccccc2)nc2ccccc12)c1ccccc1` [Example 14, (S)-N-(a-ethylbenzyl)-3-[2-(3-carboxypropanoyl)aminoethoxy]-2-phenylquinoline-4-carboxamide], the 50% inhibitory concentration (IC50) in test [1] turned out to be 2.3 nM.
`CC[C@H](NC(=O)c1c(OCCNC(=O)Cc2ccccc2)c(-c2ccccc2)nc2ccccc12)c1ccccc1` [Example 22]: in test [1], the half-maximal inhibitory concentration (IC50) is 0.6 nM.

These data come from patent US6277862A, “Quinoline derivatives” (SmithKline Beecham S.p.A., priority 1995, dated 2001).
